{"source": "patent US20030028906A1", "about": "“Gene control” (priority 1995, published 2003)", "key": {"[1]": {"system": "CYP1A1/β-galactosidase promoter/reporter", "assay": "β-galactosidase staining of tissue sections from transgenic mice carrying pAhIR1β-gal after 3-MC induction", "settings": "for β-Galactosidase staining intensity: mice carrying pAHIR1, 3-MC 40 μg/g once a day for 3 days; for induction of lacZ expression in the liver: 9 kb rat CYP1A1 promoter-lacZ transgenic mice, IP 40 mg/kg for 3 days, 40 mg/kg", "excerpt": "The protocol described below has been adapted to analyse the β-galactosidase expression from transgenic mice and in this regard determine the activity of the P450 1A1 promoter which is effectively driving the expression of this transgene in response to induction of P450 1A1 by the carcinogenic agent 3-methylcholanthrene. All timings in this protocol are critical.\nWhen performing this technique it is essential to incorporate a positive control into the reaction where a tissue sample which is a known expresser of β-galactosidase is treated in an identical manner to that of the test tissues. […] The positive control used in these experiments was a small intestine sample which was a known high expressor of the detection enzyme.\n1) The mouse under test was killed by cervical dislocation and the organs required were removed using a sterile scalpel. A small representative piece of mouse organ was fixed on to moistened cork using commercial adhesive. The tissue sample on the cork was then frozen in liquid nitrogen chilled freezing spray (Histological Supplies LTD) for approximately 30 seconds. The tissue sample was then double wrapped in parafilm, placed in a plastic bag, sealed and snap frozen in liquid nitrogen.\n4) The metal chuck was placed in the cryostat holder and turned until the tip of the tissues touched the front of the cutting blade. The cryostat was set to obtain small sections approximately 8 microns thickness. By turning the handle of the cryostat small sections of tissue were obtained. Sections were continually taken until a representative section of tissue was obtained. The antiroll plate was then placed against the blade and a section to be harvested was cut.\n9) Slides were produced as described using the cryostat and the tissue was fixed in 0.5% glutaraldehyde (in PBS) for 1 day at 4° C. 10) The tissue was then incubated in PBS +2mM MgCl2+30% sucrose at 4° C. overnight.\n13) 2-3 hours in X-gal solution at 37° C. or even overnight.\n19) The slides were then mounted in DPX and viewed under a microscope. It was important at this stage that the slides were never permitted to dry out since this will affect the quality of the results. The slides should be continually dipped into the histoclear solution to prevent this occurring while the slides are being prepared.\nThe expected results from the β-galacotsidase staining assay are areas of pink which uniformly stain the tissue section and small areas of blue in the tissue section which indicate areas where X-gal has been metabolised by the β-galactosidase enzyme.\nThe inducibility of expression. The pAhIR1βgal transgene in the liver was examined after administration of 3-methylcholanthrene (3-mc). The inducing agent was administered IP at a dosage of 40 mg/kg for 3 days and the animals were sacrificed for expression on day four. The induction in the transgenic animals was controlled by:\na) administration of corn oil to transgenic mice,\nb) the administration of 3-methylcholanthrene (3-mc) to non-transgenic littermates.\nlacZ expression was also investigated in a number of other tissues. The same procedure for sectioning and staining tissue sections was employed."}, "[2]": {"system": "β-galactosidase activity", "assay": "β-galactosidase staining of tissue sections from non-transgenic controls treated with 3-MC", "assay_type": "in vivo, mouse", "excerpt": "All timings in this protocol are critical."}, "[3]": {"system": "Ah receptor", "assay": "Induction of the transgene in C57 BL6 mice", "assay_type": "in vivo, mouse", "excerpt": "(§1) In addition to the use of this promoter as a general regulatable system for the expression of transgenes this strategy can be exploited to obtain expression targeted to specific cell types. Thus, for example, when the transgene is incorporated into cells containing a modified hydrocarbon receptor, the inducability of the transgene is modulated. […] In addition, the introduction of an Ah receptor responsive to 3-methylcholanthrene into a specific cell, e.g. through the use of a tissue-specific promoter element, will allow tissue-specific induction of a transgene in this mouse on administration of 3-methylcholanthrene. This strategy exploits the fact that the Ah receptor in DBA mice through mutation is non-responsive to certain classes of agents which induce by this mechanism. […] Therefore, using a combination of different forms of the Ah receptor with different types of inducing agent will allow much more precise regulation of transgene expression in cells."}, "[4]": {"system": "modified Ah receptor", "assay": "Induction of the transgene in DBA mice", "assay_type": "in vivo, mouse", "excerpt": "as §1"}, "[5]": {"system": "CYP1A1 dioxin-responsive promoter coupled to CAT reporter gene", "settings": "2.58 kbp mouse CYP1A1 fragment-CAT transgenic mice, cited from earlier work"}}, "data": [{"compound": "Cc1ccc2cc3c(ccc4ccccc43)c3c2c1CC3", "note": "[3-methylcholanthrene]", "values": [{"measurement": "β-Galactosidase staining intensity", "setting": "[1]; Adrenal gland", "result": "+++"}, {"measurement": "β-Galactosidase staining intensity", "setting": "[1]; Colon", "result": "+"}, {"measurement": "β-Galactosidase staining intensity", "setting": "[1]; Duodenum", "result": "+++"}, {"measurement": "β-Galactosidase staining intensity", "setting": "[1]; Forestomach", "result": "+"}, {"measurement": "β-Galactosidase staining intensity", "setting": "[1]; Ileum", "result": "+++"}, {"measurement": "β-Galactosidase staining intensity", "setting": "[1]; Jejunum", "result": "+++"}, {"measurement": "β-Galactosidase staining intensity", "setting": "[1]; Kidney", "result": "++"}, {"measurement": "3-mc induced lacZ expression in tissues", "setting": "[1]; Liver, Kidney, Brain (specific regions), Duodenum, Jejunum, Ileum, Lung, Spleen, Oesophagus, Colon, Pancreas, Adrenal Gland, Ovary", "result": "detected"}, {"measurement": "β-Galactosidase staining intensity", "setting": "[1]; Liver", "result": "++++"}, {"measurement": "β-Galactosidase staining intensity", "setting": "[1]; Lung", "result": "+"}, {"measurement": "β-Galactosidase staining intensity", "setting": "[1]; Oesophagus", "result": "++"}, {"measurement": "β-Galactosidase staining intensity", "setting": "[1]; Ovary", "result": "+"}, {"measurement": "β-Galactosidase staining intensity", "setting": "[1]; Pancreas", "result": "+"}, {"measurement": "β-Galactosidase staining intensity", "setting": "[1]; Spleen", "result": "++"}, {"measurement": "β-Galactosidase staining intensity", "setting": "[1]; Stomach", "result": "+"}, {"measurement": "β-Galactosidase staining intensity", "setting": "[1]; Testes", "result": "+"}, {"measurement": "induction of lacZ expression in the liver", "setting": "[1]; listed as 3-mc", "result": "very high"}, {"measurement": "induction of lacZ expression in the liver", "setting": "[1]; listed as 3-methyl-cholanthene", "result": "massive induction"}, {"measurement": "induction of expression in spleen and bowel", "setting": "[1]; spleen and bowel, 9 kb rat CYP1A1 promoter transgenic mice", "result": "substantial induction"}, {"measurement": "β-Galactosidase staining intensity", "setting": "[2]; Duodenum", "result": "+"}, {"measurement": "β-Galactosidase staining intensity", "setting": "[2]; Ileum", "result": "+"}, {"measurement": "β-Galactosidase staining intensity", "setting": "[2]; Jejunum", "result": "+"}, {"measurement": "β-Galactosidase staining intensity", "setting": "[2]; Kidney", "result": "+"}, {"measurement": "induction of the transgene", "setting": "[3]", "result": "an inducer of the transgene"}, {"measurement": "induction of the transgene", "setting": "[4]", "result": "not an inducer of the transgene"}, {"measurement": "increase of hepatic expression levels (CAT reporter)", "setting": "[5]; liver, versus mock-induction", "result": "≤ 10,000 fold"}, {"measurement": "induction of CAT expression", "setting": "[5]; spleen, small bowel, kidney and lung", "result": "More modest levels of induction"}]}, {"compound": "Clc1cc2c(cc1Cl)Oc1cc(Cl)c(Cl)cc1O2", "note": "[tetrachlorodibenzodioxin]", "values": [{"measurement": "induction of the transgene", "setting": "[4]", "result": "induction can still be obtained"}]}]}
